# Measured values: patent US5912351A, “Anhydrous 1,4-Dihydropyridines and salts thereof” (Recordati, S.A. Chemical and Pharmaceutical Company, priority 1995, dated 1999)
# Tests used:
# Assay type in all cases: cell-based
# rat myocytes = assay: Arterial myocyte migration, micro chemotaxis chamber with fibrinogen; settings: 5 hours, fibrinogen 600 μg/ml, FIG. 2
# Protocol: Migration of rat myocytes was examined using a 48-well micro chemotaxis chamber (Neuro-Probe, USA). Freshly trypsinized myocytes prepared according to the procedure in Example 4A were suspended in a medium supplemented with 5% fetal calf serum (assay medium). The lower wells, containing 27 μl of the assay medium that included fibrinogen (600 μg/ml) as chemotactic agent, were covered with a polyvinylpyrrolidone-free polycarbonate filter ([…]). Fifty μl of the cell suspension (1×10^6 cells/ml) were placed in the upper compartment with the tested compounds. Incubation was carried out for 5 hours at 37° C. in an atmosphere of 95% air and 5% CO2.
# After incubation the filter was removed from the chamber and non-migrated cells were scraped from the upper surface, and the filters washed with phosphate buffered saline three times. The filters were stained with Diff-Quik (Merz-Dade AG, Switzerland). The number of myocytes per 100×high power field that had migrated to the lower surface of the filters was determined microscopically. Six high power fields were counted per sample and the results were averaged.
# enzyme ACAT [1] = molecular target: T1, enzyme ACAT (Mus musculus, UniProt Q61263); assay: Cholesterol esterification induced by AcLDL in mouse peritoneal macrophages; settings: FIG. 3
# T1 construct: Mouse peritoneal macrophages were obtained by peritoneal lavage from mice; endogenous in cells; host or cells: peritoneal macrophages of Balb/c mice, three days after intraperitoneal thioglycolate
# T1 sequence (Q61263 1-540): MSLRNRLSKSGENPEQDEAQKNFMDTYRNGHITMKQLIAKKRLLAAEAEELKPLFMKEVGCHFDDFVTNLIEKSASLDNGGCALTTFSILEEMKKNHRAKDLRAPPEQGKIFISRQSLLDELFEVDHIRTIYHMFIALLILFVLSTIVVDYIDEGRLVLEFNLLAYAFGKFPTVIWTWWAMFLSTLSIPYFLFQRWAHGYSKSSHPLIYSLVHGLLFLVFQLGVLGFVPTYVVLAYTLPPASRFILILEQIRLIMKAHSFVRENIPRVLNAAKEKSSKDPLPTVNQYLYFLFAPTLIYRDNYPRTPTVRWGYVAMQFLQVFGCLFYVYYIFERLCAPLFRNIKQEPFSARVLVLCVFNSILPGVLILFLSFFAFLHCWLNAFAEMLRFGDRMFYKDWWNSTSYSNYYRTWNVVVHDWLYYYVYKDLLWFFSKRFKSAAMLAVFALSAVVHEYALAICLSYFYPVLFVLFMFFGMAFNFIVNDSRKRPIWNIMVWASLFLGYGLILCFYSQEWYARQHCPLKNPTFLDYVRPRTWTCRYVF
# Protocol: Cholesterol esterification induced by AcLDL in mouse peritoneal macrophages was investigated as follows. Mouse peritoneal macrophages were obtained by peritoneal lavage from mice (Balb/c Charles River, Calco, Italy) three days after intraperitoneal injection of thioglycolate. Cells (2×3×10^6) were plated in 35 mm wells with Dulbecco's minimum essential medium containing 10% fetal bovine serum. After 3 hours, the dishes were washed to eliminate unattached cells and maintained in Dulbecco's minimum essential medium plus 10% fetal bovine serum for 24 hours before use. After cell plating, experiments were performed at 37° C. in serum free Dulbecco's minimum essential medium containing 0.2% essentially fatty acid-free bovine serum albumin, AcLDL, a specific ACAT inhibitor, S-58035 (See C. A. Ross et al., J. Biol, Chem. 259: 815-819 (1984)), and lercanidipine, or the lercanidipine enantiomers indicated. Human LDL (d=1.019-1.063 g/ml) were isolated from plasma of healthy volunteers by sequential ultracentrifugation (Beckman L5-50, Palo Alto, Calif.). […] Trichloroacetic acid non-precipitable radioactivity was below 2% of total. […] Cholesterol esterification was measured after addition of [1-^14 C] oleic acid (0.68 mCi sample) complexed with bovine serum albumin during the last 1 or 2 hours of incubation by subsequent determination of radioactivity associated with cellular cholesteryl esters.
# enzyme ACAT [2] = molecular target: T1, enzyme ACAT; assay: Cholesterol esterification in cholesterol ester loaded macrophages; settings: macrophages preloaded with cholesteryl esters
# Protocol: Cholesterol esterification induced by AcLDL in mouse peritoneal macrophages was investigated as follows. Mouse peritoneal macrophages were obtained by peritoneal lavage from mice (Balb/c Charles River, Calco, Italy) three days after intraperitoneal injection of thioglycolate. Cells (2×3×10^6) were plated in 35 mm wells with Dulbecco's minimum essential medium containing 10% fetal bovine serum. After 3 hours, the dishes were washed to eliminate unattached cells and maintained in Dulbecco's minimum essential medium plus 10% fetal bovine serum for 24 hours before use. After cell plating, experiments were performed at 37° C. in serum free Dulbecco's minimum essential medium containing 0.2% essentially fatty acid-free bovine serum albumin, AcLDL, a specific ACAT inhibitor, S-58035 (See C. A. Ross et al., J. Biol, Chem. 259: 815-819 (1984)), and lercanidipine, or the lercanidipine enantiomers indicated. Human LDL (d=1.019-1.063 g/ml) were isolated from plasma of healthy volunteers by sequential ultracentrifugation (Beckman L5-50, Palo Alto, Calif.). For acetylation, LDL were dialyzed against 0. 15 M NaCl , pH 7.4, diluted with an equal volume of saturated sodium acetate and treated with acetic anhydride. For [^125 1]AcLDL, lipoproteins were labelled with sodium [^125 I]iodide desalted by gel filtration on Sephadex G-25 eluted with phosphate buffered saline. Specific activity was 100-200 cpm/ng of protein. Trichloroacetic acid non-precipitable radioactivity was below 2% of total. All lipoproteins were sterile filtered. The cells were incubated for 24 hours with the tested compounds. […] Cholesterol esterification was measured after addition of [1-^14 C] oleic acid (0.68 mCi sample) complexed with bovine serum albumin during the last 1 or 2 hours of incubation by subsequent determination of radioactivity associated with cellular cholesteryl esters. […]
# Cells, prepared according to the procedure in Example 6A, are loaded with cholesteryl esters by exposure for 24 hours to a medium containing 50 μg/ml acetyl LDL. ACAT inhibition was then determined as in Example 6A.
"relative potency, cholesterol esterification (enzyme ACAT [1])","relative potency, cholesterol esterification (enzyme ACAT [2])",IC50 (enzyme ACAT [2]; FIG. 4) [µM],SMILES,inhibition of myocytes migration (rat myocytes)
most potent compound,slightly more potent than the racemate,~7,"COC(=O)C1=C(C)NC(C)=C(C(=O)OC(C)(C)CN(C)CCC(c2ccccc2)c2ccccc2)[C@@H]1c1cccc([N+](=O)[O-])c1 [(R)-LE, (R)-(-)METHYL 1,1-N-TRIMETHYL-N-(3,3-DIPHENYLPROPYL)-2-AMINOETHYL 1,4-DIHYDRO-2,6-DIMETHYL-4-(3-NITROPHENYL)PYRIDINE-3,5-DICARBOXYLATE]",most pronounced effect
–,least potent,–,"COC(=O)C1=C(C)NC(C)=C(C(=O)OC(C)(C)CN(C)CCC(c2ccccc2)c2ccccc2)[C@H]1c1cccc([N+](=O)[O-])c1 [(S)-LE, (S)-(+)-METHYL 1,1-N-TRIMETHYL-N-(3,3-DIPHENYLPROPYL)-2-AMINOETHYL 1,4-DIHYDRO-2,6-DIMETHYL-4-(3-NITROPHENYL)PYRIDINE-3,5-DICARBOXYLATE]",–
